Molecules are shown by their SMILES. ≈ marks a conversion by molar mass, not a printed value.

One series relates to PANC-1. Briefly: Cytotoxicity against human PANC1 cells after 72 hrs by MTT assay. Type of series: functional, cell-based. The note with it: PANC-1, 72 h.
A short description of series [1]: Cytotoxicity against human NCI/ADR cells after 72 hrs by MTT assay. Type of series: functional, cell-based. The following applies: NCI/ADR-RES.
The next series concerns A549. Briefly: Cytotoxicity against human A549 cells after 72 hrs by MTT assay. Type of series: functional, cell-based. The following applies: A549, 72 h.
A further series concerns P388. Kind of series: Cytotoxicity against mouse P388 cells after 72 hrs by MTT assay. Type of series: functional, cell-based. The following applies: P388, 72 h.
Series [2] is described as follows: Cytotoxicity against mouse RAW264.7 cells assessed as cell viability at 1.3 ug/ml after 3 hrs by MTT assay. Type of series: cell-based. The note with it: read-out: Activity.
In series [3] the target is T1, Nitric oxide synthase, inducible (Mus musculus, UniProt P29477).
T1 sequence (P29477 whole entry): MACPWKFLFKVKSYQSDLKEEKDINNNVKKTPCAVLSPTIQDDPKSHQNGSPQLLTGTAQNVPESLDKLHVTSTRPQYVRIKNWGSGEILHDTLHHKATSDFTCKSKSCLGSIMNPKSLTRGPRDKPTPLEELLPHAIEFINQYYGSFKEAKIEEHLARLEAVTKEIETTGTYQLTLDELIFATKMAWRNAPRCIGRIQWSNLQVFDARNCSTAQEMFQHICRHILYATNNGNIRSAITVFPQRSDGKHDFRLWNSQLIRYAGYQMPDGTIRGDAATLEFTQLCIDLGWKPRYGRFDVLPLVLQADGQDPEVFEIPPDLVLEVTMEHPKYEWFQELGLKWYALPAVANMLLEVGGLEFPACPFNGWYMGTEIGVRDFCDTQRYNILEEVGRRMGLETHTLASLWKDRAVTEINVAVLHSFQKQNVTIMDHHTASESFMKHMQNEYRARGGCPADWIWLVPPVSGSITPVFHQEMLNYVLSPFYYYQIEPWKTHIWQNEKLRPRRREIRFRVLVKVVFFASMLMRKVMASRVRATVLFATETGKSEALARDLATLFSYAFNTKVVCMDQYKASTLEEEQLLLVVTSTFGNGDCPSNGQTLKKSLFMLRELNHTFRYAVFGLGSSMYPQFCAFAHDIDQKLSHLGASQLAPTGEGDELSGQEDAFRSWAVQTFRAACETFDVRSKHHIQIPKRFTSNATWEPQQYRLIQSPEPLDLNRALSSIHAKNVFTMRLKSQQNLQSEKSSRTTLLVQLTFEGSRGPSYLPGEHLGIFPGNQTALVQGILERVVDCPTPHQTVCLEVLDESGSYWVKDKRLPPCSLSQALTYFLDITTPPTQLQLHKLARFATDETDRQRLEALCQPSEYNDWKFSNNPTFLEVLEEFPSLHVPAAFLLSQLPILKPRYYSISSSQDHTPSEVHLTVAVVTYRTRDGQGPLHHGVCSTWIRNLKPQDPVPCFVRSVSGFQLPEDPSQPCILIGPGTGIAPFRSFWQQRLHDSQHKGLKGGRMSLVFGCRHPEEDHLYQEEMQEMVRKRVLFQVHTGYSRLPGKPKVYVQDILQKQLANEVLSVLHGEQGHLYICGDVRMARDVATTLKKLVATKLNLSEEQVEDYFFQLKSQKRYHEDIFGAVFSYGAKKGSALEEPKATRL
Kind of series: Inhibition of iNOS-mediated NO production in LPS-stimulated mouse RAW264.7 cells by Griess method. Type of series: cell-based.

With `C=C1C[C@@](C)(/C=C/C=C/CCCCCCCC)OC1=O` [PLAKOLIDE A], the IC50 was 3.8 µg/mL (≈ 13.7 µM) in the series on PANC-1; 3.7 µg/mL (≈ 13.4 µM) in series [1]; 5 µg/mL (≈ 18.1 µM) in the series on A549; 1.1 µg/mL (≈ 3.98 µM) in the series with P388; 724 nM in series [3]. Besides, the viability at 3 h, 1.3 ug/ml in series [2] was 50%.

For the origin of these results see ChEMBL document CHEMBL1146468, “Plakolide A, a new gamma-lactone from the marine sponge Plakortis sp” (J Nat Prod, 2004).
